Values of other authors as cited in patent publication US20100160306A1, “Acylated Piperidine Derivatives as Melanocortin-4 Receptor Agonists” (priority 2005, published 2010).

Conditions: injected intramuscularly or subcutaneously, males with psychogenic erectile dysfunction

For “Ac-Nle-c[Asp-His-DPhe-Arg-Trp-Lys]-NH2 [MT-II]”, the response rate is given as 75%.
